Data: patent publication US12396956B2, “Modified release compositions of a gamma-hydroxybutyric acid derivative” (XWPHARMA LTD., priority 2020, dated 2025)

Assay: Oral bioavailability of γ-hydroxybutyric acid from the prodrug
Settings: in a patient, oral administration

## CC(C)[C@H](N)C(=O)OCCCC(=O)O [compound (1), 4-((L-Valyl)oxy)butanoic acid]
  oral bioavailability of γ-hydroxybutyric acid: greater than 60 % F
